# Literature values, collected in patent US20260232672A1, “COMPOSITIONS AND METHODS OF TREATING FEMALE SEXUAL DYSFUNCTION AND FEMALE SEXUAL AROUSAL DISORDER” (Daré Bioscience, Inc., priority 2023, published 2026).
# Test system: pre- and postmenopausal women afflicted with broad-spectrum FSD
# Conditions: oral
compound,measurement,setting,value
"CCCc1nn(C)c2c(=O)[nH]c(-c3cc(S(=O)(=O)N4CCN(C)CC4)ccc3OCC)nc12.O=C(O)CC(O)(CC(=O)O)C(=O)O [oral sildenafil citrate, 1-[4-ethoxy-3-(6,7-dihydro-1-methyl-7-oxo-3-propyl-1H-pyrazolo[4,3-d]pyrimidin-5-yl)phenylsulfonyl]-4-methylpiperazine citrate salt]",rates of side effects,"doses 25 mg-100 mg, previous clinical trials in women",high rates of side effects
same,efficacy versus placebo,published placebo-controlled trials,marginal efficacy versus placebo
